Reference: patent EP4342467A1, “KU INHIBITORS FOR USE IN TUMOR THERAPY” (Masarykova Univerzita, priority 2022, dated 2024)

How the values were obtained:
DNA-PKcs = DNA-PKcs autophosphorylation (S2056) after bleomycin, Western blotting in HCT116 cells; assay type: cell-based, human; conditions: HCT116, pre-incubated 1 hr
Protocol: iKU-1 blocks activation of DNA-PKcs upon induction of DNA damage in vivo (Figure 2). HCT116 cells were pre-incubated with iKU-1 for 1 hr in McCoy's 5a medium supplemented with 10% Fetal Bovine Serum, 2 mM L-Glutamine, Penicilin/Streptomycin 200 U/l each. DNA breaks were induced by addition of bleomycin and incubated for additional 4 hrs. DNA damage triggers DNA-PKcs activity that leads to its autophosphorylation at the residue 2056. The phosphorylated DNA-PKcs was detected by Western blotting using anti-pDNA PKcs (phospho S2056) antibody [EPR5670] (Abcam, ab124918) and the total amount of DNA-PKcs with the anti-DNA PKcs antibody (BioRad, AHP318), both in 1:10000 dilution in TBS-T buffer overnight at 4°C. The primary antibody was detected by immunostaining with IRDye 800CW-conjugated Goat anti-Rabbit IgG secondary antibody (dilution 1:20000 in TBS-T). The signal was imaged using Odyssey Imager (Li-Cor). […] The total level of DNA-PKcs was not altered by the treatment.

U2OS = assay: combination with BIBR1532, relative growth by ATPlite; assay type: cell-based, human; conditions: 10 µM BIBR1532, 0.25 µM iKU-1 or their combination, 4 days
HeLa = assay: as above; assay type: cell-based, human; conditions: 10 µM BIBR1532, 0.25 µM iKU-1 or their combination, 4 days
HCT116 cells [1] = assay: flow cytometry analysis of DNA content (cell cycle); assay type: cell-based, human; conditions: HCT116 incubated for two days
Protocol: HCT116 cells were incubated for two days in McCoy's 5a medium supplemented with 10% Fetal Bovine Serum, 2 mM L-Glutamine and Penicilin/Streptomycin 200 U/l each in the presence of iKU-1, harvested and fixed in cold 70% ethanol. Cells were recovered in PBS solution and resuspended in 200 µl of Vindel solution containing propidium iodide and RNAse A, and nuclear DNA content was measured by flow cytometry (Beckton Dickinson FACS Verse). Accumulation of cells in S-phase is apparent already after two days of the iKU-1 treatment.

A2780 = assay: growth of A2780 cells by ATPlite, alone and in combination with Bleomycin; assay type: cell-based, human
Protocol: 2,000 A2780 cells were seeded in 100 µl of RPMI 1640 medium with 300 mg/l L-Glutamine and 10% Fetal Bovine Serum for 1 day in 96well plate and treated by 0.025 µg/ml of Bleomycin, 0.5 µM of iKu-1 or their combination for 7 days. Number of viable cells was measured by ATPlite kit (Perkin Elmer) and normalized to the treatment with 0.5% DMSO.
Values in the table indicate relative growth assessed by ATPlite kit compared to the control sample treated with 0.5% DMSO after 7 days of treatment.
2,000 SKOV3 and A2780 cells were seeded in 100 µl of McCoy's 5a or RPMI 1640 media, respectively, for one day and then incubated with iKU-1 for 7 days. Number of viable cells was measured by ATPlite kit (Perkin Elmer) and normalized to the treatment with 0.5% DMSO.

HCT116 = assay: combination with BIBR1532, relative growth by ATPlite; assay type: cell-based, human
Protocol: 10,000 HCT116 cells were seeded in 100 µl of McCoy's 5a medium supplemented with 10% Fetal Bovine Serum, 2 mM L-Glutamine and Penicilin/Streptomycin 200 U/l for 1 day in 96well plate and treated with 10 µM BIBR1532, 0.25 µM of iKU-1 or their combination for 4 days. Number of viable cells was measured by ATPlite kit (Perkin Elmer) and normalized to the treatment with 0.5% DMSO. The results presented in Table 2 show a synergistic effect of iKU-1 and BIBR1532 on the growth of HCT116 tumor cell line. Values in the table indicate relative growth assessed by ATPlite kit compared to the control sample treated with 0.5% DMSO after 4 days of treatment.

Ku complex = Ku complex (Homo sapiens, UniProt P12956+P13010); assay: electrophoretic mobility shift assay (EMSA) of Ku binding to double stranded DNA; conditions: 98 bp DNA probe, compared with STL127705 (Figure 1)
Sequence of Ku complex (P12956 whole entry): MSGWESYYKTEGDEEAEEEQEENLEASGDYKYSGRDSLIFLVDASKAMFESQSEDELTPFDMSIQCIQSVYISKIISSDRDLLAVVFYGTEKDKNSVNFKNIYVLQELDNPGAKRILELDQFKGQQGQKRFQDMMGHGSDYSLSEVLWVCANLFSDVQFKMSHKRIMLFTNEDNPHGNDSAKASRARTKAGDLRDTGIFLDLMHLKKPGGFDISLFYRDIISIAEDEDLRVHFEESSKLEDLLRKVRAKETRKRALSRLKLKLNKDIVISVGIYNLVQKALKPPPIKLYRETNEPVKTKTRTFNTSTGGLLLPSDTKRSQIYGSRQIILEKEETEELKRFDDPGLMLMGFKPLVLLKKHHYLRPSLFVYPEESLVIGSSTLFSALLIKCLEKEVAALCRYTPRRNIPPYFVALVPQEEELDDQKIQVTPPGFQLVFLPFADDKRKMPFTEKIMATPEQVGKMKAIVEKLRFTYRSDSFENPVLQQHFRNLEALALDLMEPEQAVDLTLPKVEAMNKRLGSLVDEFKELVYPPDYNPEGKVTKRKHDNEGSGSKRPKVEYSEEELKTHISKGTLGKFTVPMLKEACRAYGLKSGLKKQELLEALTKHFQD
Sequence of Ku complex (P13010 whole entry): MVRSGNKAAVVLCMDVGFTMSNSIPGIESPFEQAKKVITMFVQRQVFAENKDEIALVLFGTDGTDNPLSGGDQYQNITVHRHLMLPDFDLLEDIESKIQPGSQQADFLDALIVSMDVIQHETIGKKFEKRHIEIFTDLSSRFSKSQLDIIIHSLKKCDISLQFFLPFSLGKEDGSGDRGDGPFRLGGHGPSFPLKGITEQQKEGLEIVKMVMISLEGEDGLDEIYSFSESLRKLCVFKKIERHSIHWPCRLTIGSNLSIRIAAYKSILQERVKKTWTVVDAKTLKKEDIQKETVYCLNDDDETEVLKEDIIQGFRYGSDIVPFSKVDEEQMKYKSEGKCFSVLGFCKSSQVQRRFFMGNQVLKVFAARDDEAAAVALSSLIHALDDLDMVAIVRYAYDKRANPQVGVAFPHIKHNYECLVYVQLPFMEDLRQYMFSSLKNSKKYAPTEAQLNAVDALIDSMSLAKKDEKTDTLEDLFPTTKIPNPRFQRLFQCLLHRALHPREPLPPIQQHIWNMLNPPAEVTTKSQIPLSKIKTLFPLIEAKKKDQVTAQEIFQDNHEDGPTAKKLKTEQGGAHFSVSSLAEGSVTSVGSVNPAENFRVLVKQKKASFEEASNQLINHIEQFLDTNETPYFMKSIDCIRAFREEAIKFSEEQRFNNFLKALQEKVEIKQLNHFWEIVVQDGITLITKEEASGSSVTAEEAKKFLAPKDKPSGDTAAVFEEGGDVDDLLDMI
Excerpt: We also compared iKU-1 (Compound 1) and the published Ku inhibitor STL127705 (Weterings, E., Gallegos, A.C., Dominick, L.N., Cooke, L.S., Bartels, T.N., Vagner, J., Matsunaga, T.O., and Mahadevan, D. (2016). A novel small molecule inhibitor of the DNA repair protein Ku70/80. DNA Repair (Amst) 43, 98-106) in their efficiency to inhibit binding of Ki to double stranded DNA by electrophoretic mobility shift assay (Figure 1). A 98 bp long oligonucleotide that can bind up to four Ku complexes was used as a probe.
DNA (0.6 nM) in 10 µl EMSA buffer (35 mM Tris-Cl pH 7.9, 150 mM KCl, 1 mM EDTA, 0.1 mM Dithiothreitol, 5% Glycerol) was mixed with 10 µl of human Ku complex (100 nM in EMSA buffer) preincubated with the inhibitors for 5 min at room temperature, and incubated for additional 10 min. DNA associated with Ku complexes was seprated by native polyacrylamide gel electrophoresis (5% polyacrylamide 29:1 [Sigma-Aldrich], 0.5 TBE) at 160 V for 4 hrs. Gels were dried in gel dryer on 3MM paper, exposed to phospho-screen (GE Healthcare) and the autoradiograms were generated by scanning with Typhoon (GE Healthcare).

HCT116 cells [2] = assay: DNA damage induction, immunodetection of γH2AX in nuclei; assay type: cell-based, human; conditions: HCT116 incubated for 1 day
Protocol: iKU-1 induces DNA damage in treated cells (Figure 3). HCT116 cells were incubated for 1 day in McCoy's 5a medium with 10% Fetal Bovine Serum, 2 mM L-Glutamine and Penicilin/Streptomycin 200 U/l each and supplemented with iKU-1. DNA damage induction was assessed by immunodetection of yH2AX in nuclei with specific antibody (Anti-phospho-Histone H2A.X (Ser139) Antibody, clone JBW301, Merck; dilution 1:500) and Alexa Fluor-conjugated secondary antibody (Goat anti-Mouse IgG (H+L) Highly Cross-Adsorbed Secondary Antibody, Alexa Fluor™ Plus 647, Invitrogen/Thermofisher; dilution 1:500).

O=C(Nc1nc(-c2ccccn2)cs1)c1cncc(Br)c1 [Compound 1]
total level of DNA-PKcs (DNA-PKcs; then bleomycin for 4 hrs): not altered | phosphorylation of DNA-PKcs (S2056) (DNA-PKcs; then bleomycin up to 30 µg/ml for 4 hrs): blocked the phosphorylation | relative growth assessed by ATPlite kit compared to the control sample treated with 0.5% DMSO (U2OS): 0.81 | relative growth assessed by ATPlite kit compared to the control sample treated with 0.5% DMSO (HeLa): 1.22 | cell cycle effect (HCT116 cells [1]): cell cycle arrest in S-phase | interaction with Bleomycin on growth (A2780; A2780, 0.025 µg/ml Bleomycin with 0.5 µM iKu-1, 7 days): synergism | growth inhibition (A2780; A2780, 0.5 µM, 7 days): do not show growth inhibition | relative growth assessed by ATPlite kit compared to the control sample treated with 0.5% DMSO (A2780; A2780, 0.025 µg/ml Bleomycin, 0.5 µM iKU-1 or their combination, 7 days): 1.11 | interaction with BIBR1532 on growth (HCT116; HCT116, 10 µM BIBR1532 with 0.25 µM iKU-1, 4 days): synergism | relative growth assessed by ATPlite kit compared to the control sample treated with 0.5% DMSO (HCT116; HCT116, 10 µM BIBR1532, 0.25 µM iKU-1 or their combination, 4 days): 1.17 | efficiency to inhibit binding of Ku to double stranded DNA (Ku complex): more potent inhibitor of Ku-DNA binding than STL127705 | DNA damage induction (γH2AX signal) (HCT116 cells [2]): formation of either nuclear foci or whole nuclear staining in a subset of cells
